This is an account of results in patent publication USRE49351E1, “Cytoprotective agent” (Biogen MA Inc., priority 2009, dated 2023).

The nature of assay [1]: modified H-ORAC (mH-ORAC) assay. It is filed as biochemical. Conditions: acetone solution, acetone final concentration 1.25%. How it is done: (§1) To study the free radical scavenging activity of a triprenyl phenol compound, the following H-ORAC (hydrophilic oxygen radical absorbance capacity) assay, and modified H-ORAC (mH-ORAC) assay were conducted.
(§2) SMTP compounds evaluated by H-ORAC were used respectively in a form of a sodium salt aqueous solution, and the compounds evaluated by mH-ORAC were used respectively in a form of an acetone solution.
(§3) In H-ORAC a test compound was diluted appropriately with a buffer solution (75 mM phosphate buffer solution, pH 7.4) and used for measurement. In mH-ORAC a test compound was diluted appropriately by a 50% (v/v) acetone solution, prepared by diluting an acetone solution with water, to prepare a solution of 40-fold the final concentration. […] As for the reference material Trolox, 500 μM/buffer solution was diluted appropriately with a buffer solution.
(§4) To a 96-well microplate (transparent, flat bottom, black wall) 50 μL of a test compound solution or a Trolox solution was placed, and additionally 100 μL of a fluorescein 140 nM/buffer solution as a fluorescent substance was added (final concentration 70 nM), followed by incubation at 37° C. for […].
(§5) As a free radical generator, 50 μL of a 48 mM/buffer solution of 2,2′-azobis(amidinopropane)dihydrochloride was added (final concentration 12 mM), and fluorescence intensity at fluorescence wavelength of 535 nm with excitation wavelength of 485 nm was measured at 2 min intervals for 90 min. The calibration curve was prepared between the Trolox final concentrations of 5 to 15 μM. The measurement was conducted by changing the concentration with n=3, and plotted on a diagram with time on the abscissa and the fluorescence intensity on the ordinate. Therewith evaluation was made using the value obtained by reducing the area under the curve for the blank from the area under the curve for the sample. The result was expressed as an equivalent to Trolox.

Assay [2] in a line: H-ORAC (hydrophilic oxygen radical absorbance capacity) assay. Format: biochemical. The conditions noted are these: sodium salt aqueous solution, phosphate buffer pH 7.4. As to the method:
as §1, §2, §3, §4, §5

Assay [3] deals with Mongolian gerbil cerebral infarction model. The assay is described as follows: Mongolian gerbil cerebral infarction model (acetic acid-induced thrombus): infarction area percentage and neurological symptom. It is filed as in vivo. The conditions noted are these: mean ± SE, n=6; for Infarction area: evaluated 24 h; for Neurological scores: score 0-4 at 24 h. The source says:
Anesthesia was induced to a male Mongolian gerbil (body weight 55 to 65 g) by inhalation of 5% isoflurane (trade name Escain, Mylan Inc.), and maintained with 1 to 1.5% isoflurane. The Mongolian gerbil was fixed in a dorsal position, and the neck was dehaired and then disinfected with 70% ethanol. After median incision of the neck, the right common carotid artery was detached, clamped to block the blood flow temporarily, and coated with 100% acetic acid by 30 reciprocating motions so as to produce a thrombus. The blood vessel was reopened after 10 min of the blockage of the blood flow to transfer the thrombus by the blood stream into the brain to make it ischemic and generate cerebral infarction. The operating field was closed with an instant adhesive (trade name Aron Alpha (Krazy Glue), Toagosei Co., Ltd.) and disinfected with 70% ethanol.
Twenty four hours after the initiation of the operation neurological symptoms were observed as an indicator for cerebral infarction. Many types of neurological symptoms specific to cerebral infarction, such as extension of a hindlimb or circling to one direction, have been reported. Applying a modified evaluation method of the method proposed by Longa, et al. (Stroke 1989; 20:84-91) postoperative neurological symptoms were evaluated as per: no deficit, 0; extension of limb, 1; circling to one direction, 2; incline posture, 3; diminished motion, 4.
With respect to statistical analysis, for multiple comparisons was conducted firstly one-way analysis of variance (ANOVA) and then a Bonferroni test was conducted, if significant difference is detected. Significant difference was positively recognized with significance level 5% (P<0.05). All the results are expressed in mean±standard error.
After the evaluation of neurological symptoms according to the above method, the animal was decapitated under anesthesia with isoflurane. The cranial bone was exfoliated of skin and opened, and, after scission of optic nerve, the brain was extirpated and dipped in a physiological saline solution to remove attached body hairs, etc. The extirpated brain was placed in a brain matrix (RBM-1000C, ASI Instruments) to carry out coronal slicing from the frontal pole at thickness of 2 mm. The slices were dipped in 2% 2,3,5-triphenyl-2H-tetrazolium chloride (TTC), and incubated for staining at 37° C. for 30 min in a CO2 incubator. The colorless TTC is reduced by hydrogen liberated by the action of dehydrogenase contained in a normal cell converting to dark red colored water-insoluble 1,3,5-triphenylformazan (TPF), so that the normal cell is stained. Unstained area (white area) was defined as an infarction area. Meanwhile, the corpus callosum, which is commissural fibers connecting the right and left cerebral hemispheres, is not stained and is white, and therefore image processing for the analyses as described below was conducted excluding the corpus callosum.
After staining images of the brain slices were taken by a digital camera under a stereoscopic microscope. For analysis of the infarction area percentage, an image analysis software Image J (Version 1.4) was used. Full, excluding the corpus callosum, images of the taken 2nd, 3rd, and 4th brain slice images were converted to grayscale. From the grayscale images a histogram for the whole brain as the object scope was obtained showing in the ordinate the frequency of occurrence (frequency) at certain brightness, and showing in the abscissa the brightness (0 to 255). The sum from 0 to 255 was defined as the area size of the whole brain, and the sum from 160 to 219 was defined as the area size of the infarction area. Then the infarction area percentage was determined according to the following formula using the total area size of the infarction areas and the total area size of the whole brain, of the 3 brain slice images. Statistical analysis was conducted as above. […]

The mark [4] stands for this setting: 1 mg/kg i.v., administration initiated 0 hr after ischemia.
Setting [5] is: 1 mg/kg i.v., administration initiated 1 hr after ischemia.
Where [6] appears, read: 10 mg/kg i.v., administration initiated 1 hr after ischemia.
[7] abbreviates: 3 mg/kg i.v., administration initiated 0 hr after ischemia.
Setting [8] is: 3 mg/kg i.v., administration initiated 1 hr after ischemia.
Where [9] appears, read: 3 mg/kg i.v., administration initiated 3 hr after ischemia.

Counter-ions that a name gives are not always drawn.

Turning to `CC(C)=CCC/C(C)=C/CC[C@]1(C)Oc2c(c(O)cc3c2CNC3=O)C[C@@H]1O` [SMTP-0], the “free radical scavenging activity, Trolox equivalent” value (“free radical scavenging activity” for short) in assay [1] was determined as 7.76 ± 0.36 molTE/mol.

For `CC(C)=CCC/C(C)=C/CC[C@]1(C)Oc2c(c(O)cc3c2CN(CCO)C3=O)C[C@@H]1O` [SMTP-1], the “free radical scavenging activity” value in assay [1] is recorded as 4.35 ± 0.55 molTE/mol.

On to `CC(C)=CCC/C(C)=C/CCC1(C)Oc2c(c(O)cc3c2CN(C(Cc2ccccc2)C(=O)O)C3=O)CC1O` (stereo not drawn) [SMTP-4], for which the “free radical scavenging activity” value in assay [2] is reported as 1.79 ± 0.02 molTE/mol.

In the case of `CC(C)=CCC/C(C)=C/CCC1(C)Oc2c(c(O)cc3c2CN([C@H](CC(C)C)C(=O)O)C3=O)CC1O` (stereo partly drawn) [SMTP-5D], the “free radical scavenging activity” value in assay [2] was 1.71 ± 0.20 molTE/mol.

For `CC(C)=CCCC(C)=CCCC1(C)Oc2c(c(O)cc3c2CN(CCCCC(C(=O)O)N2Cc4c(cc(O)c5c4OC(C)(CCC=C(C)CCC=C(C)C)C(O)C5)C2=O)C3=O)CC1O` (stereo not drawn) [SMTP-8], the “free radical scavenging activity” value in assay [1] worked out at 1.69 ± 0.14 molTE/mol.

Turning to `CSCC[C@@H](C(=O)O)N1Cc2c(cc(O)c3c2O[C@@](C)(CCC=C(C)CCC=C(C)C)[C@@H](O)C3)C1=O` [SMTP-13], the “free radical scavenging activity” value in assay [2] is 3.07 ± 0.51 molTE/mol.

As for `CC(C)=CCCC(C)=CCC[C@]1(C)Oc2c(c(O)cc3c2CN([C@@H](Cc2ccc(O)cc2)C(=O)O)C3=O)C[C@@H]1O` [SMTP-14], the “free radical scavenging activity” value in assay [2] stood at 4.43 ± 0.49 molTE/mol.

As for `CC(C)=CCCC(C)=CCC[C@]1(C)Oc2c(c(O)cc3c2CN(c2ccc(S(=O)(=O)O)cc2)C3=O)C[C@@H]1O` [SMTP-42], in assay [2], the “free radical scavenging activity” value worked out at 3.28 ± 0.25 molTE/mol.

Take `CC1CNc2c(cccc2S(=O)(=O)N[C@@H](CCCNC(=N)N)C(=O)N2CC[C@@H](C)C[C@@H]2C(=O)O)C1` (stereo partly drawn) [argatroban]: the Infarction area in assay [3] (setting [4]) amounted to 10.0 ± 2.66%; in assay [3] (setting [5]) it was 12.1 ± 2.46%; in assay [3] (setting [6]), 11.5 ± 2.57%. In addition, the Neurological scores came out at 2.33 ± 0.61 in assay [3] (setting [4]), 2.50 ± 0.50 in assay [3] (setting [5]) and 2.50 ± 0.56 in assay [3] (setting [6]).

Consider `CC1=NN(c2ccccc2)C(=O)C1` [edaravone], for which the Infarction area in assay [3] (setting [5]) stood at 12.8 ± 2.87%; in assay [3] (setting [7]), 9.95 ± 3.22%; in assay [3] (setting [8]) it was 8.29 ± 1.61 %; in assay [3] (setting [9]) it was 12.3 ± 5.59%; in assay [3] (setting [6]) it was 9.29 ± 2.17%. The Neurological scores was determined as 3.17 ± 0.17 in assay [3] (setting [5]); 1.50 ± 0.67 in assay [3] (setting [7]); 1.50 ± 0.67 in assay [3] (setting [8]); 2.50 ± 0.56 in assay [3] (setting [9]); 1.83 ± 0.65 in assay [3] (setting [6]).

As for `Clc1ccccc1CN1CCc2sccc2C1` [ticlopidine HCl], the Infarction area in assay [3] (setting [4]) amounted to 8.83 ± 1.73%; in assay [3] (setting [5]), 13.1 ± 3.89%; in assay [3] (setting [6]), 9.84 ± 1.81%. The Neurological scores in assay [3] (setting [4]) turned out to be 2.33 ± 0.42; in assay [3] (setting [5]), 2.67 ± 0.56; in assay [3] (setting [6]), 2.33 ± 0.42.
